Measured values as given in the kinase profiling compilation of Christmann-Franck et al. (2016).

Columns and labels:
Assay in all cases: KINOMEscan competition binding
Conditions in all cases: compound 10.0 µM
[1] = molecular target: IKBKB (human) (UniProt O14920)
[2] = molecular target: MAPK14 (human) (UniProt Q16539)
[3] = test system: FLT3 (human), P36888 [D835H]
[4] = molecular target: MYO3B (human) (UniProt Q8WXR4)
[5] = molecular target: EPHA4 (human) (UniProt P54764)
[6] = molecular target: JAK3 JH1 catalytic (human) (UniProt P52333)
Chain of JAK3 JH1 catalytic (human) (P52333 whole entry, looked up): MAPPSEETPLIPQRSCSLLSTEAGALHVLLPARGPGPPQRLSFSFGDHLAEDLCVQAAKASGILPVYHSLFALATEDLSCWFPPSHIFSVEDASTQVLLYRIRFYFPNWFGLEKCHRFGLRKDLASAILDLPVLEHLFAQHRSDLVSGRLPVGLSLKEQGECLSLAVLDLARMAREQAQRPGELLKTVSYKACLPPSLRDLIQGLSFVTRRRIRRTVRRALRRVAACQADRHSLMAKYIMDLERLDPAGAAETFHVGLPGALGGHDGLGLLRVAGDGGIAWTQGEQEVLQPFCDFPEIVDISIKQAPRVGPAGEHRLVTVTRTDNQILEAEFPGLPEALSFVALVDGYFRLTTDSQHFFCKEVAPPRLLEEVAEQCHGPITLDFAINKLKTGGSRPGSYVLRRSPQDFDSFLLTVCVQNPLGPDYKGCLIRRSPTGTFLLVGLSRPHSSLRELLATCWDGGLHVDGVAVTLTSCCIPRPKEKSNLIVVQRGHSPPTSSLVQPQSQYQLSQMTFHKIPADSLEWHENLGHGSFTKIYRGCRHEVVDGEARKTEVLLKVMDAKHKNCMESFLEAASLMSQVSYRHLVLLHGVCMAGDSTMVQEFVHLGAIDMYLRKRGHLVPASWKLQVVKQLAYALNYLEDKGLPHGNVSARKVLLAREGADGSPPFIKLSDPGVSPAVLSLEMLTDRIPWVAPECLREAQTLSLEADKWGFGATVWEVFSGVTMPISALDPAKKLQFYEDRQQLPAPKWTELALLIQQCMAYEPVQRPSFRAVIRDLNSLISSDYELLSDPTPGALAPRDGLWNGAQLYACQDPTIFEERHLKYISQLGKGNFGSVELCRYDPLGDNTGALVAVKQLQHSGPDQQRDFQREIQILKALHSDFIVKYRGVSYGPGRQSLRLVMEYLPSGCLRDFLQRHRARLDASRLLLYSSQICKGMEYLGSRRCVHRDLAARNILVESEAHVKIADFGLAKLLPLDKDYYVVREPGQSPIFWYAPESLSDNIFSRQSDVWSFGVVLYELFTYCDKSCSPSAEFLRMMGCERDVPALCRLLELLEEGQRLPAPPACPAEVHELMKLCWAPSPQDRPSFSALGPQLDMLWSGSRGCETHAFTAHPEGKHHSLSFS

[7] = molecular target: EPHA8 (human) (UniProt P29322)
[8] = molecular target: CDK15 (human) (UniProt Q96Q40)
[9] = test system: ABL1 (human), P00519 [E255K]
[10] = molecular target: KDR (human) (UniProt P35968)
Chain of KDR (human) (P35968 whole entry, looked up): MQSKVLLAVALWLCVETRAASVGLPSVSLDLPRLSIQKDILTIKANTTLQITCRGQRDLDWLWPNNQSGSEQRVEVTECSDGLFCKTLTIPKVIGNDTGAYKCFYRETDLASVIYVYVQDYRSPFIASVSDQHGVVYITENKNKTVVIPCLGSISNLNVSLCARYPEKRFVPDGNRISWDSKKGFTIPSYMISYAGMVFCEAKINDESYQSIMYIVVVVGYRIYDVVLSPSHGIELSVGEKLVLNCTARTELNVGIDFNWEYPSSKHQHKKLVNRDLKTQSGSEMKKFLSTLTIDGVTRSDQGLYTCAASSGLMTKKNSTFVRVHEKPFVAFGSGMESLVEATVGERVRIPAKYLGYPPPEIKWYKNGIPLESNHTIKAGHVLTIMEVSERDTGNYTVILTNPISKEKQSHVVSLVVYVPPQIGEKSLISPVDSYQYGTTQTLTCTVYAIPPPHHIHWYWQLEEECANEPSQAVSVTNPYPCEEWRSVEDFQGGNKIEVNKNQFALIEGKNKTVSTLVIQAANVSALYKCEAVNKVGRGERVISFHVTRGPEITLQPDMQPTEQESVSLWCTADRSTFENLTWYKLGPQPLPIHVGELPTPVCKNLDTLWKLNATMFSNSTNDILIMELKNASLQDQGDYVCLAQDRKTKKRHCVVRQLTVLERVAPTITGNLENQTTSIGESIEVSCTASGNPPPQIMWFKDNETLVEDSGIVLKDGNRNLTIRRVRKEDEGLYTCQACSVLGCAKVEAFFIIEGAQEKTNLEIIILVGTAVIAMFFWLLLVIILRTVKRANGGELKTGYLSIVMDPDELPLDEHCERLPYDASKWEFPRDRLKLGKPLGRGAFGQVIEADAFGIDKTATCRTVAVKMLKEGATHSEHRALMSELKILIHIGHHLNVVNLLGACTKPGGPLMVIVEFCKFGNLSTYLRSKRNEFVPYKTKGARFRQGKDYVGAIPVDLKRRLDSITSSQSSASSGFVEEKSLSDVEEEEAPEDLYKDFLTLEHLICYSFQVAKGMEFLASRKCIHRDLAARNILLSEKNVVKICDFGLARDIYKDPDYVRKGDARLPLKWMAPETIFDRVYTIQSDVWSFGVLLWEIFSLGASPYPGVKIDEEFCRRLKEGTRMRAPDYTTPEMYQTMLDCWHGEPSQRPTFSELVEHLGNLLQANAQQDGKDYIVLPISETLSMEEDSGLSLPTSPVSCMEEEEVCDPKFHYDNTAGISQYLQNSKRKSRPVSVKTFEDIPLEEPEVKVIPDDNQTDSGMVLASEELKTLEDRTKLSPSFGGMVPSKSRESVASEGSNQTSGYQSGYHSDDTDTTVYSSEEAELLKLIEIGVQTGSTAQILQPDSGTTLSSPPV

[11] = test system: EGFR (human), P00533 [746-750 del]
[12] = molecular target: FGR (human) (UniProt P09769)
[13] = test system: FLT3 (human), P36888 [K663Q]
[14] = molecular target: CDK18 (human) (UniProt Q07002)
[15] = molecular target: NTRK3 (human) (UniProt Q16288)
[16] = molecular target: TIE1 (human) (UniProt P35590)
[17] = molecular target: HCK (human) (UniProt P08631)
[18] = molecular target: MUSK (human) (UniProt O15146)
[19] = molecular target: FYN (human) (UniProt P06241)
[20] = test system: RET (human), P07949 [V804L]
Chain of RET (human), P07949 [V804L] (P07949 whole entry V804L, looked up): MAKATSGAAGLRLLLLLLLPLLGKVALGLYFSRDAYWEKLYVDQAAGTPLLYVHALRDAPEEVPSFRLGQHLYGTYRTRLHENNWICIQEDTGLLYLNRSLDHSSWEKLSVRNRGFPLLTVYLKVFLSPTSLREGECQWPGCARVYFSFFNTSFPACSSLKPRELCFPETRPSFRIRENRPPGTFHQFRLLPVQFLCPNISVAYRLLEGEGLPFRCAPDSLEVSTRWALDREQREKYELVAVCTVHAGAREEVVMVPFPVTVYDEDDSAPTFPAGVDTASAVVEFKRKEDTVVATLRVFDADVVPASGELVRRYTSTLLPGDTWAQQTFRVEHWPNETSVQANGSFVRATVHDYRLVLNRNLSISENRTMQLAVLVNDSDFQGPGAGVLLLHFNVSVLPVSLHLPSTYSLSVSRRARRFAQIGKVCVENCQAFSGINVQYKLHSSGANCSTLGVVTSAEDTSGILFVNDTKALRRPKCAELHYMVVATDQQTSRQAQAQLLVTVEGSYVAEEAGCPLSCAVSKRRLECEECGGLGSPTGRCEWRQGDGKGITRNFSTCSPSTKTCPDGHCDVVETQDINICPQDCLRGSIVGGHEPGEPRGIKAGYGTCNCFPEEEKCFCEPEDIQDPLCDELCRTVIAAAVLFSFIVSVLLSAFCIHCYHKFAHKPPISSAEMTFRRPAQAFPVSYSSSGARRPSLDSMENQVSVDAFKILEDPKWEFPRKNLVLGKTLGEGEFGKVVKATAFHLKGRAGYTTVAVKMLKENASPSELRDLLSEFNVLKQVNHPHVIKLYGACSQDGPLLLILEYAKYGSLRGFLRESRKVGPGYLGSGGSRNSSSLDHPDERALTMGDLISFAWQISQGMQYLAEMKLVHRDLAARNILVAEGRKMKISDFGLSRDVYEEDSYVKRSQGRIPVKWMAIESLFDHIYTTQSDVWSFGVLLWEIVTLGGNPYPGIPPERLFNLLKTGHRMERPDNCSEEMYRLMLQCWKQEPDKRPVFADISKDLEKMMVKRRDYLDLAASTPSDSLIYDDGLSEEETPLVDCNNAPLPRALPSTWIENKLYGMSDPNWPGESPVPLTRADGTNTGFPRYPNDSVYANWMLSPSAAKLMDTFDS

[21] = molecular target: PDGFRA (human) (UniProt P16234)
[22] = molecular target: TEK (human) (UniProt Q02763)
[23] = molecular target: FLT1 (human) (UniProt P17948)
[24] = molecular target: EPHB2 (human) (UniProt P29323)
[25] = test system: EGFR (human), P00533 [G719S]
[26] = molecular target: PTK2 (human) (UniProt Q05397)
[27] = molecular target: TNNI3K (human) (UniProt Q59H18)
[28] = molecular target: FLT3 (human) (UniProt P36888)
[29] = test system: ABL1 (human), P00519 [F317L]
[30] = molecular target: RIPK1 (human) (UniProt Q13546)
[31] = molecular target: FGFR2 (human) (UniProt P21802)
[32] = molecular target: MKNK2 (human) (UniProt Q9HBH9)
[33] = test system: ABL1 (human), P00519 [H396P]
[34] = molecular target: CDK9 (human) (UniProt P50750)
Chain of CDK9 (human) (P50750 whole entry, looked up): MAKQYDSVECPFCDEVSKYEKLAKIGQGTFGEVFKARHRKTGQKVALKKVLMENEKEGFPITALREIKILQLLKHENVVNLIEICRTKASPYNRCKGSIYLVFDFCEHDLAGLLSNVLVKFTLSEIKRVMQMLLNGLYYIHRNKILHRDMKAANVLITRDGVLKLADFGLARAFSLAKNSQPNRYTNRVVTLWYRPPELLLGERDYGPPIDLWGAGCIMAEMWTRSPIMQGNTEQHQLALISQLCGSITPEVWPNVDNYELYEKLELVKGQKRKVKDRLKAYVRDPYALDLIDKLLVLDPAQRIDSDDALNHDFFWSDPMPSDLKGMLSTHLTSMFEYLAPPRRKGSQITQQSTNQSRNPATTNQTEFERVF

[35] = molecular target: SRMS (human) (UniProt Q9H3Y6)
[36] = molecular target: DDR1 (human) (UniProt Q08345)
[37] = molecular target: CDK11B (human) (UniProt P21127)
[38] = molecular target: STK38L (human) (UniProt Q9Y2H1)
[39] = molecular target: TXK (human) (UniProt P42681)
Chain of TXK (human) (P42681 whole entry, looked up): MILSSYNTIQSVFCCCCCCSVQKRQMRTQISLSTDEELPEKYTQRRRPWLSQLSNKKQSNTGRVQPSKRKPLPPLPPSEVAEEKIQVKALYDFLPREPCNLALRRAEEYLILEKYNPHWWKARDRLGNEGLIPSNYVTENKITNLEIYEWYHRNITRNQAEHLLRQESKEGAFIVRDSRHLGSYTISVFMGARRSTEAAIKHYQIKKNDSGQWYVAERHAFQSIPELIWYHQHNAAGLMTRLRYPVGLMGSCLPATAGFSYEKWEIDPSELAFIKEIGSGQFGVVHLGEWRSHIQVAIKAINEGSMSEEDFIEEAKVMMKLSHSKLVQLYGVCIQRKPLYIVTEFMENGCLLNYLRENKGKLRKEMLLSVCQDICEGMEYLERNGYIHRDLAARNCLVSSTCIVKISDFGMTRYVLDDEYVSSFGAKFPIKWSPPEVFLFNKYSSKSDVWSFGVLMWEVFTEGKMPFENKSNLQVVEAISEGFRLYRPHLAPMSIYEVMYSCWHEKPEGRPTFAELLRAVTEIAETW

[40] = molecular target: MAP4K2 (human) (UniProt Q12851)
[41] = test system: RET (human), P07949 [M918T]
Chain of RET (human), P07949 [M918T] (P07949 whole entry M918T, looked up): as the sequence (P07949 whole entry V804L, looked up) above, with L804V, M918T counted along it

Chain of MAPK14 (human) (Q16539 whole entry, looked up): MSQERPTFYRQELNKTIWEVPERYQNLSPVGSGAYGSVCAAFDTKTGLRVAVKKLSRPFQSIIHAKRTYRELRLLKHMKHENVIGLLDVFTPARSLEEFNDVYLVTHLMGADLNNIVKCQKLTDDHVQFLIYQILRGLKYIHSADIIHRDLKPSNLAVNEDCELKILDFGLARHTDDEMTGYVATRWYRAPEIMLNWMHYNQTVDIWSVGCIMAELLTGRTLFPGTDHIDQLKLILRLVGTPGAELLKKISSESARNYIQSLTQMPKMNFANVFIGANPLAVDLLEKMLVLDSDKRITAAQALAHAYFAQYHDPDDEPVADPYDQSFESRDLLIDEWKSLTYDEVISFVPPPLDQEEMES

CCN1CCN(Cc2ccc(NC(=O)c3ccc(C)c(Oc4ccnc5[nH]ccc45)c3)cc2C(F)(F)F)CC1
kinase still bound, per cent of control [1]: 24% | kinase still bound, per cent of control [2]: 0% | kinase still bound, per cent of control [3]: 1.2% | kinase still bound, per cent of control [4]: 4.8% | kinase still bound, per cent of control [5]: 5.8% | kinase still bound, per cent of control [6]: 2.4% | kinase still bound, per cent of control [7]: 0.1% | residual activity [8]: 6% | kinase still bound, per cent of control [9]: 1.2% | kinase still bound, per cent of control [10]: 1.5% | kinase still bound, per cent of control [11]: 8.4% | kinase still bound, per cent of control [12]: 1.2% | kinase still bound, per cent of control [13]: 0% | residual activity [14]: 1.8% | kinase still bound, per cent of control [15]: 3.8% | kinase still bound, per cent of control [16]: 0.95% | kinase still bound, per cent of control [17]: 0.4% | kinase still bound, per cent of control [18]: 0.2% | kinase still bound, per cent of control [19]: 1.6% | kinase still bound, per cent of control [20]: 0.8% | kinase still bound, per cent of control [21]: 0.6% | kinase still bound, per cent of control [22]: 0% | kinase still bound, per cent of control [23]: 1.6% | kinase still bound, per cent of control [24]: 11% | kinase still bound, per cent of control [25]: 14% | kinase still bound, per cent of control [26]: 23% | kinase still bound, per cent of control [27]: 4.8% | kinase still bound, per cent of control [28]: 0.15% | kinase still bound, per cent of control [29]: 0.1% | kinase still bound, per cent of control [30]: 0% | kinase still bound, per cent of control [31]: 1.4% | kinase still bound, per cent of control [32]: 4.2% | kinase still bound, per cent of control [33]: 0.7% | residual activity [34]: 5.8% | kinase still bound, per cent of control [35]: 4.6% | kinase still bound, per cent of control [36]: 0.05% | residual activity [37]: 0.35% | kinase still bound, per cent of control [38]: 6.8% | kinase still bound, per cent of control [39]: 12% | kinase still bound, per cent of control [40]: 0.3% | kinase still bound, per cent of control [41]: 0%
